Values quoted from earlier work as cited in US10329245B2, “Method for making a prenyl group-substituted tyrosine compound” (King Fahd University of Petroleum and Minerals, priority 2015, dated 2019).
Where two headings read alike, the source gives them in different places.

System: AGS (human gastric adenocarcinoma) cells
Settings: AGS cell lines, p<0.01

Question: With `CC(=O)N[C@@H](Cc1ccc(O)c(CC=C(C)C)c1)C(=O)O` [compound 1, (S)-2-Acetamido-3-(4-hydroxy-3-(3-methylbut-2-enyl)phenyl)propanoic acid] as the compound, how does the “cell viability, % of control levels” value (75 μM compound 1 combined with 100 ng/mL TRAIL) read?
Answer: 77±7%

Question: What about the “cell viability, % of control levels” value (150 μM compound 1 combined with 100 ng/mL TRAIL) of the same compound?
Answer: 67±5%
